Assay results: patent publication US11845805B2, “Bispecific antibody against CD3 and CD20 in combination therapy for treating diffuse large B-cell lymphoma” (GENMAB A/S, priority 2020, dated 2023)
Read-outs that look alike come from different tables or passages of the source.

Experiments:
[1] = tested on: T cells; experiment: T cell viability after 16 hours pre-incubation with CHOP components; format: cell-based
[2] = tested on: primary DLBCL and follicular lymphoma patient biopsies; details: biopsies taken a certain amount of time after administration of an anti-CD20 antibody; cited from earlier work
[3] = tested on: CD20-expressing Raji-luc tumor cells; details: even in the presence of an excess of IgG1-RTX-FEAR (rituximab variant with inert Fc domain); cited from earlier work
[4] = T cells pretreated 16 hours with the CHOP component

In the case of `COc1cccc2c1C(=O)c1c(O)c3c(c(O)c1C2=O)C[C@@](O)(C(=O)CO)C[C@@H]3O[C@H]1C[C@H](N)[C@H](O)[C@H](C)O1` [doxorubicin], the T cell viability [1, 4] is reported as “reduction in T cell viability”.

In the case of `O=P1(N(CCCl)CCCl)NCCCO1` (stereo not drawn) [cyclophosphamide, 2H-1,3,2-Oxazaphosphorin-2-amine, N,N-bis(2-chloroethyl)tetrahydro-, 2-oxide], the T cell viability [1] is reported as “did not impact T cell viability”.

With `C[C@]12C=CC(=O)C=C1CC[C@@H]1[C@@H]2C(=O)C[C@@]2(C)[C@H]1CC[C@]2(O)C(=O)CO` [prednisone, 17,21-dihydroxypregna-1,4-diene-3,11,20-trione] the T cell viability [1, 4] was “did not impact T cell viability”.

For “epcoritamab: IgG1 bispecific CD3×CD20 antibody; heavy/light chain pairs SEQ ID NOs: 24/25 and 26/27; CAS 2134641-34-0”, the “T-cell-mediated cytotoxicity in patient biopsies” value [2] is listed as “induced T-cell-mediated cytotoxicity” and the “tumor growth in the xenograft model” value [3] is listed as “effectively reduce tumor growth”.

With `CC[C@]1(O)C[C@H]2CN(CCc3c([nH]c4ccccc34)[C@@](C(=O)OC)(c3cc4c(cc3OC)N(C=O)[C@H]3[C@@](O)(C(=O)OC)[C@H](OC(C)=O)[C@]5(CC)C=CCN6CC[C@]43[C@@H]65)C2)C1` [vincristine] the T cell viability [1, 4] was “did not impact T cell viability”.
